Legend:
Platelet rich plasma = experiment: T-TAS flow system (collagen and tissue factor coated channel), rivaroxaban-treated platelet rich plasma; assay type: cell-based, human; conditions: 3 μM rivaroxaban (6.04 without)
Source text: (§1) In the Total Thrombus-formation Analysis System (T-TAS®, FUJIMORI KOGYO CO., LTD), the sample is forced through collagen-coated microchannels using mineral oil. Changes in pressure are used to assess thrombus formation. The Occlusion Start Time is time it takes to reach 10 kPa, and the Occlusion Time=time it takes to each Δ80 kPa using an AR chip (e.g., Zacros Item No, TC0101). According to the manufacturer, an AR chip can be used for analyzing the formation of a mixed white thrombus consisting chiefly of fibrin and activated platelets. It has a flow path (300 μm wide by 50 μm high) coated with collagen and tissue factors and can be used to analyze the clotting function and platelet function. In comparison, a PL chip can be used for analyzing the formation of a platelet thrombus consisting chiefly of activated platelets. A PL chip has a flow path coated with collagen only and can be used to analyze the platelet function.
In a similar experiment, T-TAS® assays were run according to Example 3 with no rivaroxaban, 3 μM rivoroxaban, and 3 μM rivoroxaban and 300×10^3/μL thrombosomes. Platelet rich plasma that was treated with 3 μM rivaroxaban extended occlusion times from 6.04 to 26.01 minutes on the T-TAS® flow system (collagen and tissue factor coated channel).

whole blood = experiment: T-TAS thrombus formation under flow, AR chip (collagen+TF), rivaroxaban-anticoagulated whole blood; assay type: cell-based, human
Source text: as §1
Rivaroxaban (sometimes herein called Riv) dose-response in whole blood was measured using T-TAS®. An AR chip (Collagen+TF) was used. T-TAS® assays were performed according to Example 3. The donor platelets were used at 307k/μL.
Thrombosomes were prepared consistent with the procedures described in U.S. Pat. No. 8,486,617 (such as, e.g., Examples 1-5) and U.S. Pat. No. 8,097,403 (such as, e.g., Examples 1-3), and rehydrated by addition of sterile water. T-TAS® assays were run according to Example 3 using 3 μM rivaroxaban and different concentrations of thrombosomes (FIG. 10A, Table 8). The ‘No Riv’ vertical line indicates the approximate occlusion time of a sample with no added rivaroxaban.

dabigatran treated PRP = conditions: dabigatran 100 ng/mL (18.89 untreated)
Protocol: • (1) Open CAT software; set up instrument; and prepare PRP reagent (including Tissue Factor and some phospholipids), calibrator, and fluoro-buffer according to manufacturer guidelines. • (2) Thaw warfarin or control plasma in 37° C. water bath for 5 minutes. • (3) Rehydrate thrombosomes with cell culture grade water for 10 minutes then dilute with Control Buffer to double target concentration. • (4) For each sample, combine 1:1 volumes of Control Buffer with or without thrombosomes and plasma. • (5) Using a multichannel pipette, add 20 μL of PRP reagent to each well. • (6) Add 80 μL of sample per well.

heparinized plasma = experiment: Thrombin generation assay in heparinized George King Plasma; assay type: biochemical, human; conditions: 2 U/mL heparin, 20 μg/mL protamine sulfate, thrombosomes 5K, 50K, 150K per μL
Protocol: Thrombosomes were prepared consistent with the procedures described in U.S. Pat. No. 8,486,617 (such as, e.g., Examples 1-5) and U.S. Pat. No.8,097,403 (such as, e.g., Examples 1-3), and rehydrated by addition of sterile water. aPTT and thrombin generation assays were performed as described in Example 3. […] The dashed line at approximately 70 seconds denotes the limit of abnormal aPTT and the second dashed line is the maximum time measured by the instrument (120 sec). Thrombin generation in heparin treated samples was also measured. […] The dashed line in FIGS. 23B and 23C denotes a typical thrombin peak value seen in this assay for control plasma.
The dashed line at approximately 70 seconds denotes the limit of abnormal aPTT and the second dashed line is the maximum time measured by the instrument (120 sec). Thrombin generation in heparin treated samples was also measured, with and without protamine sulfate. […] The dashed line in FIGS. 24B and 24C enotes a typical thrombin peak value seen in this assay for control plasma.

Compound: O=C(NC[C@H]1CN(c2ccc(N3CCOCC3=O)cc2)C(=O)O1)c1ccc(Cl)s1 [rivaroxaban]
- occlusion time (Platelet rich plasma): 26.01 min
- AUC (whole blood; 1 uM rivaroxaban): 1686 kPa*min
- Occ Spd (whole blood; 1 uM rivaroxaban): 20.9 kPa/min
- AUC (whole blood; 3 uM rivaroxaban): 423 kPa*min
- Occ Spd (whole blood; 3 uM rivaroxaban): 28.2 kPa/min
- AUC (whole blood; 9 uM rivaroxaban): 13.6 kPa*min
- occlusion and thrombus formation (whole blood; 9 μM rivaroxaban (a pharmacological dose)): inhibits occlusion but not all thrombus formation

Compound: dabigatran
- Time to peak (dabigatran treated PRP): 34.67 min

Compound: Protamine Sulfate
- thrombosome-mediated thrombin generation after heparin reversal (heparinized plasma): Restores Thrombosome-Mediated Thrombin Generation

From patent US20240066065A1, “PLATELET DERIVATIVES FOR TREATING COAGULOPATHY” (Cellphire, Inc., priority 2019, published 2024)
